According to ChEMBL document CHEMBL1131581, “4H-1,2,4-Pyridothiadiazine 1,1-dioxides and 2,3-dihydro-4H-1,2, 4-pyridothiadiazine 1,1-dioxides chemically related to diazoxide and cyclothiazide as powerful positive allosteric modulators of (R/S)-2-amino-3-(3-hydroxy-5-methylisoxazol-4-yl)propionic acid receptors: design, synthesis, …” (J Med Chem, 1998):

Tests used:
[1] = organism: Rattus norvegicus; test: Residual insulin release from rat pancreatic islets incubated in the presence of an insulinotropic […] glucose concentration and at a 50 uM concentration of drug; assay type: functional
[2] = target: T1, Glutamate receptor ionotropic, AMPA (Rattus norvegicus) (UniProt P19491+P19492+P19493+P19490); test: Concentration of drug giving a 2-fold increase of the magnitude of the current induced by Ionotropic glutamate receptor AMPA (30 uM) and measured in Xenopus Oocytes expressing Rat Cortex AMPA Receptors; assay type: functional, cell-based
[3] = Partition coefficient was measured in between 1-octanol and aqueous buffer solution of pH 7.4; assay type: physicochemical; settings: 1-octanol/aqueous buffer
[4] = target: T1, Glutamate receptor ionotropic, AMPA (Rattus norvegicus); test: concentration of drug giving a 5-fold increase of the magnitude of the current induced by Ionotropic glutamate receptor AMPA (30 uM) and measured in Xenopus Oocytes expressing Rat Cortex AMPA Receptors; assay type: functional, cell-based
[5] = organism: Rattus norvegicus; test: Effect on duration of the postsynaptic excitatory potentials induced by electric stimulation in rat hippocampal slices; assay type: functional, Hippocampus
[6] = organism: Rattus norvegicus; test: Effect on amplitude of the postsynaptic excitatory potentials induced by electric stimulation in rat hippocampal slices; assay type: functional, Hippocampus
[7] = Ratio between the D50 value and the A50 value; assay type: functional
[8] = organism: Rattus norvegicus; test: Concentration for 50 percent increase of the amplitude (A50) of the postsynaptic excitatory potentials induced by electric stimulation in rat hippocampal slices; assay type: functional, Hippocampus
[9] = organism: Rattus norvegicus; test: Concentration for 50 percent increase of the duration (D50) of the postsynaptic excitatory potentials induced by electric stimulation in rat hippocampal slices; assay type: functional, Hippocampus

| Compound | EC2x [2] [µM] | EC5X [4] [µM] | further results |
| --- | --- | --- | --- |
| CC1Nc2ccncc2S(=O)(=O)N1 (stereo not given) | 500 | > 1000 | RIS [1]: 93.6%; logD [3]: 0.13 |
| O=S1(=O)N=CNc2cccnc21 | > 1000 | > 1000 |  |
| CN1CNc2ccncc2S1(=O)=O | > 1000 | > 1000 |  |
| O=S1(=O)NCN(C2CCCCC2)c2ccncc21 | > 1000 | > 1000 |  |
| NS(=O)(=O)c1cc2c(cc1Cl)NC(C1CC3C=CC1C3)NS2(=O)=O (stereo not given) [CYCLOTHIAZIDE] | 1.6 | 9.8 | D50 [5]: >300 µM; A50 [6]: >300 µM |
| CCN1C=NS(=O)(=O)c2ncccc21 | 96 | 186 |  |
| CC1=NS(=O)(=O)c2cnccc2N1C(C)C | 500 | 1200 |  |
| CCC(CC)C1Nc2ccncc2S(=O)(=O)N1 (stereo not given) | > 1000 | > 1000 |  |
| CC1Nc2ncccc2S(=O)(=O)N1 (stereo not given) | > 1000 | > 1000 | RIS [1]: 94.8%; logD [3]: 0.35 |
| CC1Nc2cccnc2S(=O)(=O)N1 (stereo not given) | 114 | 270 | RIS [1]: 81%; D50 [5]: 100 µM; A50 [6]: 154 µM; logD [3]: -0.2; Ratio [7]: 0.65 |
| CCCCCN1CNc2ccncc2S1(=O)=O | > 100 | > 100 |  |
| CN1CNS(=O)(=O)c2cccnc21 | 200 | 500 |  |
| CCCNC1=NS(=O)(=O)c2cnccc2N1 | > 1000 | > 1000 | RIS [1]: 57.7% |
| O=S1(=O)N=CNc2ccncc21 | > 1000 | > 1000 |  |
| CCCCN1CNS(=O)(=O)c2cnccc21 | 800 | > 1000 |  |
| CCC1=NS(=O)(=O)c2cnccc2N1 | > 1000 | > 1000 |  |
| NC1=NS(=O)(=O)c2cnccc2N1 | > 1000 | > 1000 | RIS [1]: 104% |
| CC1=NS(=O)(=O)c2cnccc2N1C | 250 | 800 |  |
| CC1=NS(=O)(=O)c2cnccc2N1 | > 1000 | > 1000 | RIS [1]: 100%; logD [3]: -0.41 |

| Compound | EC2x [2] [µM] | EC5X [4] [µM] | further results |
| --- | --- | --- | --- |
| O=S1(=O)N=CNc2ncccc21 | > 1000 | > 1000 |  |
| CC(C)N1CNc2ccncc2S1(=O)=O | > 300 | > 300 |  |
| CC1=Nc2ccc(Cl)cc2S(=O)(=O)N1 [DIAZOXIDE] | 448 | > 1000 | RIS [1]: 28.8%; A50 [8]: >500 µM; D50 [9]: >500 µM |
| O=S1(=O)NCNc2ncccc21 | > 1000 | > 1000 |  |
| O=S1(=O)NC(c2ccccc2)Nc2ccncc21 (stereo not given) | > 1000 | > 1000 |  |
| O=S1(=O)NCNc2cccnc21 | 300 | 1100 |  |
| CCN1CN(CC)S(=O)(=O)c2ncccc21 | 87 | 220 |  |
| O=S1(=O)c2cnccc2NCN1c1ccccc1 | > 100 | > 100 |  |
| CN1CNc2cccnc2S1(=O)=O | 341 | 766 |  |
| CCCC1Nc2ccncc2S(=O)(=O)N1 (stereo not given) | > 1000 | > 1000 |  |
| CCN1CNS(=O)(=O)c2cnccc21 | 55 | 195 | D50 [5]: 137 µM; A50 [6]: 222 µM; Ratio [7]: 0.6 |
| CC(C)C(C)NC1=NS(=O)(=O)c2cnccc2N1 (stereo not given) | > 1000 | > 1000 | RIS [1]: 8.6% |
| CC1Nc2ccncc2S(=O)(=O)N1C (stereo not given) | 214 | 381 |  |
| CN1CN(C)S(=O)(=O)c2ncccc21 | 39 | 133 |  |
| CCC1Nc2ccncc2S(=O)(=O)N1 (stereo not given) | > 1000 | > 1000 |  |
| CC(C)N1CNS(=O)(=O)c2cnccc21 | 94 | 237 | RIS [1]: 101% |
| CCCN1CN(C)c2ccncc2S1(=O)=O | > 1000 | > 1000 |  |
| CCC1NS(=O)(=O)c2cnccc2N1C (stereo not given) | 800 | > 1000 |  |
| CCCN1CNS(=O)(=O)c2cnccc21 | 300 | 805 |  |

| Compound | EC2x [2] [µM] | EC5X [4] [µM] | further results |
| --- | --- | --- | --- |
| CN1CNS(=O)(=O)c2ncccc21 | 21 | 51 | D50 [5]: 48 µM; A50 [6]: 79 µM; Ratio [7]: 0.6 |
| CC1NS(=O)(=O)c2cnccc2N1C (stereo not given) | 150 | 450 |  |
| CN1C=NS(=O)(=O)c2ncccc21 | 265 | 645 |  |
| CCN1CN(C)S(=O)(=O)c2ncccc21 | 38 | 96 |  |
| COc1ccc(C(=O)N2CCCC2=O)cc1 | 1440 | > 3000 | D50 [5]: >2000 µM |
| O=S1(=O)N=C(C(F)(F)F)Nc2ccncc21 | > 1000 | > 1000 |  |
| CC(C)N1CNS(=O)(=O)c2ncccc21 | 27 | 41 |  |
| CC1=NS(=O)(=O)c2ncccc2N1 | 400 | 900 | RIS [1]: 98.7%; logD [3]: -0.91 |
| CCC(C)NC1=NS(=O)(=O)c2cnccc2N1 (stereo not given) | > 1000 | > 1000 | RIS [1]: 9.4% |
| CN1CN(C)S(=O)(=O)c2cnccc21 | 300 | > 1000 |  |
| CC1=NS(=O)(=O)c2cccnc2N1C | 800 | > 1000 |  |
| CN1CNS(=O)(=O)c2cnccc21 | 63 | 283 | RIS [1]: 95.8%; D50 [5]: 130 µM; A50 [6]: 216 µM; Ratio [7]: 0.6 |
| CC(C)C1Nc2ccncc2S(=O)(=O)N1 (stereo not given) | > 1000 | > 1000 |  |
| CC(C)N1CN(C)S(=O)(=O)c2cnccc21 | > 1000 | > 1000 |  |
| O=S1(=O)NCNc2ccncc21 | > 1000 | > 1000 |  |
| O=S1(=O)c2cnccc2NCN1C1CCCCC1 | > 100 | > 100 |  |
| O=S1(=O)NC(C2CCCCC2)Nc2ccncc21 (stereo not given) | > 1000 | > 1000 |  |
| O=S1(=O)NCN(CC(F)(F)F)c2ccncc21 | 110 | 215 |  |
| CC1=NS(=O)(=O)c2cccnc2N1 | > 1000 | > 1000 | RIS [1]: 92.8%; logD [3]: -0.25 |
